Test results from patent US9827316B2, “Cardiovascular disease treatment and prevention” (priority 2013, dated 2017).

Assays:
[1] = Nitric oxide gas bubbled through carrier, change in weight; type: physicochemical; conditions: NO bubbled 40 hr, 25 ° C.
Procedure: This example illustrates one technique for preparing a composition in accordance with one embodiment of the invention. An accurate amount of a carrier (HNC 167-62) (see below) was introduced into a system. The carrier weight used in these experiments was approximately 250 g and the vessel size was 500 ml. The vessel was equipped with a mechanical stirrer, gas inlet, and gas outlet and was previously purged with argon for about an hour. The temperature of the carrier was kept at about 25-30° C. NO gas regulated at 5 psi (1 psi is about 6,900 Pa) and was then introduced at a controlled rate of about 1 bubble/s with continuous stirring. […] After 6 hours, the weight of the carrier had increased by 0.15%, by 12 hours by 0.25%, and by 24 hours by 0.56%. These increases in weight were believed to be significant considering the relative small molecular weight of NO versus the carrier. […] The carrier also can solidify upon cooling if the carrier is initially a solid at lower temperature.
Each carrier was taken in a 500 mL three necked flask equipped with a mechanical stirrer, gas inlet and a gas outlet. The system was purged with argon for one hour at room temperature (25° C.). Then nitric oxide gas was bubbled into the system. Then, nitric oxide gas was bubbled through carrier for stipulated amount of time. The changes in weight and color were noted. […]

[2] = Laser Doppler capillary blood flow in humans, 10,000 ppm NO in closed chamber (Example 5); type: in vivo, human; conditions: positive control, 1/10% in alcohol applied to skin
Excerpt: The formulation used in these studies contained nitric oxide dispersed in a lipid matrix. […] Nitric oxide is a very rapid acting molecule, and these studies used a system that employed laser Doppler with a covered chamber. The formulation was placed into the chamber and then attached to the skin by an adhesive layer on the covering. This provided a stable measuring device as determined by multiple normal evaluations of the capillary blood flow without treatment of nitric oxide.
A known positive control, methyl nicotinate, was applied to the skin at a concentration of 1/10% in alcohol. […] The vascular dynamics are such that when the blood vessels dilate physical parameters follow Bernoulli's law. This states that as one increases the diameter of a tube containing a liquid to flow will increase but the pressure and the speed of the liquid will decrease. The laser Doppler device accurately measured these parameters.
The test product was labeled as 10,000 ppm NO (nitric oxide). The study participants had 100 mg of the test product applied in a closed Hilltop chamber on the forearm. […]
A Moor Instruments DRT4 Laser Doppler Blood Flow Monitor (Devon, England) was used in these studies. The laser Doppler technique measured blood flow in the microcapillaries of the skin that are close to the skin surface and the blood flow in underlying arterioles and venules that help to regulate skin temperature. […]

[3] = Laser Doppler circulation in five human subjects (Example 8); type: in vivo; conditions: positive control formulation, 0.1%
Excerpt: This example illustrates delivery of nitric oxide formulations to five human subjects, using procedures and formulations similar to those discussed in Example 5. Each person served as their own control for the testing. A Moor Instruments Laser Doppler was used to determine circulation. […] The formulations used produce positive, almost immediate results when applied to the skin which, in these studies, was manifested by vasodilatation of the cutaneous vascular system.
For each subject, the following creams were applied: a negative control formulation (containing no NO), 0.010 gram of a 10,000 ppm NO formulation, 0.020 gram of a 10,000 ppm NO formulation, and a positive control formulation containing 0.1% methyl nicotinate. The formulations were prepared using procedures similar to those discussed in Example 1.

Structure (SMILES)	% Wt. gain [1] [%]	laser Doppler response of skin blood flow [2]	vasodilatation [3]
OCCCO [1,3-Propanediol, 1,3-propanediol]	0.09	–	–
COC(=O)c1cccnc1 [methyl nicotinate]	–	rapid response typical of the vasodilator	vasodilatation was observed
